Test results taken from patent publication US7745644B2, “Antibiotic compounds” (Merck Sharp & Dohme Corp., priority 2003, dated 2010).
In brackets after ≈: the same amount, converted by molar mass.

Key:
[1] = test system: S. aureus; test: Microbroth dilution MIC assay; type: cell-based, Staphylococcus aureus
Procedure: (§1) The strains used are isolates from either the Merck Culture Collection, the Merck Clinical Culture Collection or from Clinical Trials. The strain of Haemophilus influenzae is a mouse pathogen used for in vivo testing at Merck. The Escherichia coli strain is a cell wall permeable strain. The Candida albicans strain is used as a control. These culture are maintained as frozen stocks at −80° C. in a.) Microbank beads; b.) 2× Skim Milk; or c.) in 2× Trypticase Soy Broth+15% glycerol/50% horse serum (Haemophilus and Streptococcus pneumoniae).
(§2) Selected isolates are subcultured onto either Chocolate Agar Plates (Haemophilus influenzae), onto Trypticase Soy+5% Sheep Blood Agar Plates (Streptococcus pneumoniae, Staphylococcus aureus, Escherichia coli, Enterococcus, Bacillus) or onto Sabouraud Dextrose Agar (Candida) and incubated at 35° C. Haemophilus and Streptococcus pneumoniae are incubated in 5% CO2; all other isolates are incubated in ambient air. Isolates are subcultured 2× before assay.
(§3) Colonies are selected from plates and used to prepare an inoculum equivalent to a 0.5 McFarland standard in Trypticase Soy Broth. An inoculum with a density equivalent to a 1.0 McFarland standard is prepared for Streptococcus pneumoniae. The inoculum density for all cultures is −10^8 CFU/mL in TSB. This TSB inoculum is diluted 1:10 in sterile saline (4 mL inoculum+36 mL saline; equivalent to −10^7 CFU/mL) and kept on ice until used to inoculate microtiter plates.
All wells of 96-well microtiter plates (Dynex) are filled with 100 TL media. Haemophilus test media plates are prepared to test Haemophilus influenzae; Cation-Adjusted Mueller Hinton+5% Lysed Horse Blood plates are prepared to test Streptococcus pneumoniae; Cation-Adjusted Mueller Hinton Broth plates are prepared to test Enterococcus, Staphylococcus aureus, Escherichia coli and Bacillus subtilis. RPMI 1640 is used to test Candida The MICs against S. aureus Smith are determined in Cation-adjusted Mueller Hinton and in Cation-Adjusted Mueller Hinton+50% Human Serum to determine if the compound is inactivated by some component in serum (indicated by an increase in the MIC). Filled plates are wrapped in plastic bags (to minimize evaporation), stored frozen and thawed before use.
The compounds are prepared on a weight basis. Compounds are prepared to 2 mg/mL in 100% DMSO, then diluted to 1 mg/mL in a 1:1 dilution of DMSO/2×CAMHB (final concentration=50% DMSO/50% CAMHB). […]
(§4) All wells of microtiter plates are inoculated with (saline-diluted) culture using the MIC 2000 System, an automated plate inoculating device which delivers an inoculum of 1.5 TL per well. […] Results are recorded after 22-24-hours' incubation. Plates were read to no growth.

[2] = test system: E. faecalis; test: Microbroth dilution MIC assay; type: cell-based, Enterococcus faecalis; details: various strains of E. faecalis
Procedure: as §1, §2
(§5) Colonies are selected from plates and used to prepare an inoculum equivalent to a 0.5 McFarland standard in Trypticase Soy Broth. […]
as §4

[3] = test system: E. faecium; test: Microbroth dilution MIC assay; type: cell-based, Enterococcus faecium
Procedure: as §1, §2, §3
All wells of 96-well microtiter plates (Dynex) are filled with 100 TL media. […]
as §4

[4] = test system: B. subtilis; test: Microbroth dilution MIC assay; type: cell-based, Bacillus subtilis; details: various strains of B. subtilis
Procedure: as §1, §2, §5, §4

[5] = test system: S. pneumoniae; test: Microbroth dilution MIC assay; type: cell-based, Streptococcus pneumoniae; details: various strains of S. pneumoniae
Procedure: as §1, §2, §5, §4

[6] = test system: E. coli; test: Microbroth dilution MIC assay; type: cell-based, Escherichia coli; details: various strains of E. coli; cell wall permeable strain
Procedure: as §1, §2, §5, §4

[7] = test system: S. epidermidis; test: Microbroth dilution MIC assay; type: cell-based, Staphylococcus epidermidis; details: macrolide-resistant S. epidermidis
[8] = test system: vancomycin-resistant Enterococcus sp. (VRE); test: Microbroth dilution MIC assay; type: cell-based
Procedure: as §1, §2, §5, §4

[9] = Microbroth dilution MIC assay, all test strains pooled; type: cell-based; details: range over all test strains, including resistant ones; NCCLS guidelines; read-out: minimum inhibitory concentration (MIC)
Procedure: as §1, §2, §5, §4

## C[C@@]12C[C@]34C=CC(=O)[C@](C)(CCC(=O)Nc5c(O)ccc(C(=O)O)c5O)C3[C@@H](CC1C4)O2 (some centres unmarked) [Compound I]
[1]; linezolid-resistant S. aureus
  antibacterial activity: demonstrates antibacterial activity
[1]; macrolide-resistant S. aureus
  antibacterial activity: demonstrates antibacterial activity
[1]; methicillin-resistant S. aureus (MRSA)
  antibacterial activity: demonstrates antibacterial activity
[1]; various strains of S. aureus
  antibacterial activity: demonstrates antibacterial activity
[2]
  antibacterial activity: demonstrates antibacterial activity
[3]; linezolid-resistant E. faecium
  antibacterial activity: demonstrates antibacterial activity
[3]; multidrug-resistant E. faecium
  antibacterial activity: demonstrates antibacterial activity
[3]; various strains of E. faecium
  antibacterial activity: demonstrates antibacterial activity
[4]
  antibacterial activity: demonstrates antibacterial activity
[5]
  antibacterial activity: demonstrates antibacterial activity
[6]
  antibacterial activity: demonstrates antibacterial activity
[7]
  antibacterial activity: demonstrates antibacterial activity
[8]
  antibacterial activity: demonstrates antibacterial activity
[9]
  MIC: 0.1 to 32 µg/mL (≈ 0.227 to 72.5 µM)
